Among the test systems are HCT-15 colon; MDA-MB-231 breast; NCI-H226 lung; OVCAR-3 ovarian; OVCAR-5 ovarian; OVCAR-8 ovarian; SNB-19 CNS; SNB-75 CNS; SR leukemia; SW-620 colon.
What all share (assay): DTP human tumour cell line panel, 48 h

Several values for one entry are separate records, joined by “and”; a condition that tells them apart may be missing. Equal entries are not always repeated.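 Protocol summary: plate cells (96-well), add compound at 5 concentrations, incubate 48 h, interpolate endpoints linearly. The concentration for 50% growth inhibition is given as GI50. At the TGI there is no net growth.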 Bounds are passed on as bounds.

Among the data in PubChem BioAssay (NCI) are TGI and GI50 values, retold here.

One may read the TGI as the concentration at which net growth stops. Take `O=C(CCCN1CCC(O)(c2ccc(Cl)cc2)CC1)c1ccc(F)cc1`: the TGI with HCT-15 colon was 37.5 µM; in the experiment with MDA-MB-231 breast it was 51.5 µM; in the experiment with NCI-H226 lung, above 100 µM; in the experiment on OVCAR-3 ovarian it was 45.2 µM; in the experiment with OVCAR-5 ovarian, above 100 µM; with OVCAR-8 ovarian, above 100 µM. Further, the TGI with SNB-19 CNS was above 100 µM; in the experiment with SNB-75 CNS, 68.9 µM; in the experiment on SR leukemia, above 100 µM; with SW-620 colon, 39.6 µM.

As a reminder, the GI50 is the concentration giving 50% growth inhibition. As for `Cc1cc2c(cc1Cl)S/C(=C/C(=O)O)C(Nc1ccc3ncsc3c1)=NS2(=O)=O`, the GI50 in the experiment on HCT-15 colon was 27.4 µM; in the experiment with MDA-MB-231 breast it was 20.9 µM; in the experiment with NCI-H226 lung, 25.3 µM; in the experiment with OVCAR-3 ovarian it was 14 µM; with OVCAR-5 ovarian, 23.4 µM; in the experiment on OVCAR-8 ovarian it was 32.7 µM. In addition, the GI50 in the experiment on SNB-19 CNS was above 34.3 µM; in the experiment on SNB-75 CNS, above 100 µM; in the experiment on SR leukemia it was 14.6 µM; in the experiment with SW-620 colon, 16.3 µM. Also, the TGI with HCT-15 colon is above 65.5 µM; with MDA-MB-231 breast, above 63.7 µM; in the experiment with NCI-H226 lung, above 65.3 µM; in the experiment on OVCAR-3 ovarian, 41.2 µM; in the experiment on OVCAR-5 ovarian it was above 42.4 µM; in the experiment with OVCAR-8 ovarian, above 100 µM. Also, the TGI with SNB-19 CNS was above 56.2 µM; in the experiment on SNB-75 CNS it was above 100 µM; with SR leukemia, 77.9 µM; in the experiment with SW-620 colon, above 56 µM.

For `COc1cc(/C=C/C(=O)/C=C/c2ccc(-n3ccnc3C)cc2)ccc1O`, the GI50 is 2.6 µM in the experiment with HCT-15 colon; 2.87 µM in the experiment on MDA-MB-231 breast; 2.37 µM in the experiment with NCI-H226 lung; 2.85 µM in the experiment on OVCAR-3 ovarian; 14.9 µM in the experiment with OVCAR-5 ovarian; 3.52 µM in the experiment on OVCAR-8 ovarian. Moreover, the GI50 was 4.62 µM with SNB-19 CNS, 9.61 µM with SNB-75 CNS, 2.55 µM with SR leukemia and 2.23 µM in the experiment with SW-620 colon. For the same compound, the TGI in the experiment with HCT-15 colon is 8.47 µM; in the experiment with MDA-MB-231 breast, 9.03 µM; in the experiment with NCI-H226 lung it was 6.4 µM; in the experiment on OVCAR-3 ovarian, 8.41 µM; with OVCAR-5 ovarian it was 39.3 µM; in the experiment on OVCAR-8 ovarian, above 100 µM. For the same compound, the TGI was 86.3 µM with SNB-19 CNS, above 100 µM in the experiment on SNB-75 CNS, above 100 µM in the experiment with SR leukemia and 5.63 µM in the experiment with SW-620 colon.

In the case of `COc1cc(/C=N/Nc2ncnc3c2cnn3-c2ccccc2)ccc1O`, the GI50 is 4.06 µM in the experiment with HCT-15 colon; 2.34 µM in the experiment on MDA-MB-231 breast; above 25 µM in the experiment with NCI-H226 lung; 7.18 µM with OVCAR-3 ovarian; above 25 µM in the experiment on OVCAR-5 ovarian; above 14.7 µM with OVCAR-8 ovarian. Besides, the GI50 is above 25 µM in the experiment on SNB-19 CNS, 1.1 µM in the experiment with SNB-75 CNS, 6.09 µM in the experiment with SR leukemia and 11.1 µM in the experiment on SW-620 colon. For the same compound, the TGI in the experiment on HCT-15 colon, in the experiment with MDA-MB-231 breast, in the experiment with NCI-H226 lung, with OVCAR-3 ovarian, in the experiment with OVCAR-5 ovarian and in the experiment on OVCAR-8 ovarian was above 25 µM in each case. Also, the TGI with SNB-19 CNS was above 25 µM; in the experiment with SNB-75 CNS, above 7.39 µM; in the experiment on SR leukemia it was above 25 µM; in the experiment on SW-620 colon, above 25 µM.

With `CC(C)(C)C1CCC2c3c([nH]c4ccccc34)C3C(=O)N(c4ccc(Cl)cc4)C(=O)C3C2C1` (stereo not drawn), the GI50 with HCT-15 colon is 52.3 µM and > 10 µM; in the experiment with MDA-MB-231 breast, 56.1 µM and > 10 µM; in the experiment on NCI-H226 lung it was 72.8 µM and > 10 µM; with OVCAR-3 ovarian it was 30.3 µM and > 10 µM; with OVCAR-8 ovarian, above 100 µM; in the experiment on SNB-19 CNS, above 100 µM. For the same compound, the GI50 in the experiment on SNB-75 CNS was above 100 µM; in the experiment on SW-620 colon it was 53.9 µM and > 10 µM. In addition, the TGI with HCT-15 colon is above 100 µM; with MDA-MB-231 breast it was above 100 µM; in the experiment on NCI-H226 lung, above 100 µM; with OVCAR-3 ovarian, above 100 µM; with OVCAR-5 ovarian, 0.256 µM; in the experiment on OVCAR-8 ovarian, above 100 µM. The TGI in the experiment with SNB-19 CNS was above 100 µM; with SNB-75 CNS, above 100 µM; in the experiment with SR leukemia it was 39.5 µM and > 10 µM; in the experiment on SW-620 colon it was above 100 µM.

`COc1ccc2c(c1)[nH]c(=O)c1c3cccc(F)c3cn21`: the GI50 is 0.0458 µM with HCT-15 colon; 0.283 µM in the experiment with MDA-MB-231 breast; 12.1 µM in the experiment with NCI-H226 lung; 0.0295 µM in the experiment with OVCAR-3 ovarian; 0.508 µM in the experiment on OVCAR-5 ovarian; 0.129 µM in the experiment on OVCAR-8 ovarian. Also, the GI50 is 0.218 µM in the experiment on SNB-19 CNS, 0.0262 µM in the experiment with SNB-75 CNS, 0.0247 µM in the experiment with SR leukemia and 0.0343 µM with SW-620 colon. For the same compound, the TGI with HCT-15 colon is above 100 µM; in the experiment on MDA-MB-231 breast, above 100 µM; with NCI-H226 lung it was 44.7 µM; in the experiment with OVCAR-3 ovarian, 0.0774 µM; in the experiment on OVCAR-5 ovarian, above 100 µM; in the experiment with OVCAR-8 ovarian it was above 73.3 µM. Further, the TGI is above 69.6 µM in the experiment on SNB-19 CNS, 5.44 µM in the experiment on SNB-75 CNS, 0.594 µM in the experiment with SR leukemia and 25.8 µM with SW-620 colon.

`CCC(C)Nc1ccc(N)cc1` (stereo not drawn): the GI50 in the experiment with HCT-15 colon is 3.84 µM; in the experiment on MDA-MB-231 breast, 2.91 µM; in the experiment with NCI-H226 lung it was 4.39 µM; in the experiment with OVCAR-3 ovarian it was 2.28 µM; in the experiment with OVCAR-5 ovarian, 13.8 µM; in the experiment with OVCAR-8 ovarian, 4.19 µM. Moreover, the GI50 is 8.42 µM with SNB-19 CNS, 4.25 µM in the experiment on SNB-75 CNS, 2.1 µM with SR leukemia and 4.16 µM in the experiment on SW-620 colon. Moreover, the TGI in the experiment with HCT-15 colon turned out to be 15.6 µM; in the experiment with MDA-MB-231 breast, 12.8 µM; in the experiment with NCI-H226 lung it was 19 µM; in the experiment with OVCAR-3 ovarian, 5.54 µM; in the experiment on OVCAR-5 ovarian, 39.8 µM; in the experiment on OVCAR-8 ovarian, 22.2 µM. The TGI with SNB-19 CNS came out at 52.5 µM; in the experiment with SNB-75 CNS, 20.3 µM; in the experiment with SR leukemia, 5.4 µM; in the experiment on SW-620 colon, 15.5 µM.

`CCN(Cc1ccccc1)C1CCN(Cc2cc(Br)ccc2O)CC1`: the GI50 in the experiment on HCT-15 colon is 20.1 µM; in the experiment with MDA-MB-231 breast, 31.6 µM; in the experiment on NCI-H226 lung, above 100 µM; with OVCAR-3 ovarian it was 80.6 µM; in the experiment with OVCAR-5 ovarian, above 100 µM; in the experiment with OVCAR-8 ovarian, 76.6 µM. In addition, the GI50 was 57.2 µM in the experiment with SNB-19 CNS, 27.5 µM in the experiment on SNB-75 CNS, 27.8 µM in the experiment on SR leukemia and 27.2 µM in the experiment on SW-620 colon. The TGI with HCT-15 colon, in the experiment on MDA-MB-231 breast, with NCI-H226 lung, in the experiment on OVCAR-3 ovarian, in the experiment on OVCAR-5 ovarian and with OVCAR-8 ovarian was above 100 µM each time. Further, the TGI in the experiment with SNB-19 CNS, with SNB-75 CNS, in the experiment with SR leukemia and in the experiment on SW-620 colon was above 100 µM in each case.
